ChEMBL document CHEMBL1139057, “Rotenoids and flavonoids with anti-invasion of HT1080, anti-proliferation of U937, and differentiation-inducing activity in HL-60 from Erycibe expansa” (Bioorg Med Chem, 2007)
Active and inactive are the calls of the source. The rule behind the calls is not given here.

Columns and labels:
HT-1080 [1] = assay: Antiproliferative activity against human HT1080 cells at 3 uM after 72 hrs by calcein-AM assay; format: functional; conditions: HT-1080, 72 h
HT-1080 [2] = assay: Antiproliferative activity against human HT1080 cells at 30 uM after 24 hrs by MTT assay; format: functional; conditions: HT-1080, 24 h
HT-1080 [3] = assay: Antiproliferative activity against human HT1080 cells at 3 uM after 48 hrs by MTT assay; format: functional; conditions: HT-1080, 48 h
HT-1080 [4] = assay: Antiproliferative activity against human HT1080 cells at 10 uM after 48 hrs by calcein-AM assay; format: functional; conditions: HT-1080, 48 h
HT-1080 [5] = assay: Antiproliferative activity against human HT1080 cells at 10 uM after 24 hrs by MTT assay; format: functional; conditions: HT-1080, 24 h
HT-1080 [6] = assay: Antiproliferative activity against human HT1080 cells at 30 uM after 48 hrs by MTT assay; format: functional; conditions: HT-1080, 48 h
HL-60 [7] = assay: […] human HL60 cells assessed NBT positive cells at 10 uM after 72 hrs by NBT reduction test; format: functional
HT-1080 [8] = assay: Antiproliferative activity against human HT1080 cells at 30 uM after 48 hrs by calcein-AM assay; format: functional; conditions: HT-1080, 48 h
HT-1080 [9] = assay: Antiproliferative activity against human HT1080 cells at 3 uM after 72 hrs by MTT assay; format: functional; conditions: HT-1080, 72 h
U-937 [10] = assay: Antiproliferative activity against human U937 cells after 72 hrs by WST-8 assay; format: functional, cell-based; conditions: U-937, 72 h
HL-60 [11] = assay: Induction of human HL60 cells differentiation assessed as number of cells at 20 uM after 72 hrs by NBT reduction test; format: functional
HT-1080 [12] = assay: Antiproliferative activity against human HT1080 cells at 30 uM after 72 hrs by MTT assay; format: functional; conditions: HT-1080, 72 h
HT-1080 [13] = assay: Antiproliferative activity against human HT1080 cells at 3 uM after 48 hrs by calcein-AM assay; format: functional; conditions: HT-1080, 48 h
HL-60 [14] = assay: Induction of human HL60 cells differentiation assessed as number of cells at 10 uM after 72 hrs by NBT reduction test; format: functional
U-937 [15] = assay: Antiproliferative activity against human U937 cells after 24 hrs by WST-8 assay; format: functional, cell-based; conditions: U-937, 24 h
U-937 [16] = assay: Antiproliferative activity against human U937 cells after 48 hrs by WST-8 assay; format: functional, cell-based; conditions: U-937, 48 h
HT-1080 [17] = assay: Antiproliferative activity against human HT1080 cells at 30 uM after 24 hrs by calcein-AM assay; format: functional; conditions: HT-1080, 24 h
HT-1080 [18] = assay: Antiproliferative activity against human HT1080 cells at 30 uM after 72 hrs by calcein-AM assay; format: functional; conditions: HT-1080, 72 h
HT-1080 [19] = assay: Inhibition of invasion of human HT1080 cells at 30 uM after 24 hrs; format: functional; conditions: HT-1080, 24 h
HT-1080 [20] = assay: Antiproliferative activity against human HT1080 cells at 3 uM after 24 hrs by MTT assay; format: functional; conditions: HT-1080, 24 h
HT-1080 [21] = assay: Inhibition of invasion of human HT1080 cells at 3 uM after 24 hrs; format: functional; conditions: HT-1080, 24 h
HT-1080 [22] = assay: Inhibition of invasion of human HT1080 cells at 10 uM after 24 hrs; format: functional; conditions: HT-1080, 24 h
HT-1080 [23] = assay: Antiproliferative activity against human HT1080 cells at 10 uM after 24 hrs by calcein-AM assay; format: functional; conditions: HT-1080, 24 h
HT-1080 [24] = assay: Antiproliferative activity against human HT1080 cells at 3 uM after 24 hrs by calcein-AM assay; format: functional; conditions: HT-1080, 24 h
HT-1080 [25] = assay: Antiproliferative activity against human HT1080 cells at 10 uM after 72 hrs by calcein-AM assay; format: functional; conditions: HT-1080, 72 h
HT-1080 [26] = assay: Antiproliferative activity against human HT1080 cells at 10 uM after 72 hrs by MTT assay; format: functional; conditions: HT-1080, 72 h
HT-1080 [27] = assay: Antiproliferative activity against human HT1080 cells at 10 uM after 48 hrs by MTT assay; format: functional; conditions: HT-1080, 48 h
HL-60 [28] = assay: […] human HL60 cells assessed NBT positive cells at 30 uM after 72 hrs by NBT reduction test; format: functional
HT-1080 [29] = assay: Inhibition of invasion of human HT1080 cells at 1 uM after 24 hrs; format: functional; conditions: HT-1080, 24 h
HT-1080 [30] = assay: Antiproliferative activity against human HT1080 cells at 1 uM after 24 hrs by MTT assay; format: functional; conditions: HT-1080, 24 h
HT-1080 [31] = assay: Antiproliferative activity against human HT1080 cells at 1 uM after 48 hrs by MTT assay; format: functional; conditions: HT-1080, 48 h
HT-1080 [32] = assay: Antiproliferative activity against human HT1080 cells at 1 uM after 72 hrs by calcein-AM assay; format: functional; conditions: HT-1080, 72 h
HT-1080 [33] = assay: Inhibition of proMMP2 production in human HT1080 cells by gelatin zymography analysis; format: functional, cell-based
HT-1080 [34] = assay: Inhibition of proMMP9 production in human HT1080 cells by gelatin zymography analysis; format: functional, cell-based
HT-1080 [35] = assay: Antiproliferative activity against human HT1080 cells at 1 uM after 48 hrs by calcein-AM assay; format: functional; conditions: HT-1080, 48 h
HT-1080 [36] = assay: Antiproliferative activity against human HT1080 cells at 1 uM after 24 hrs by calcein-AM assay; format: functional; conditions: HT-1080, 24 h
HT-1080 [37] = assay: Antiproliferative activity against human HT1080 cells at 1 uM after 72 hrs by MTT assay; format: functional; conditions: HT-1080, 72 h

| Structure (SMILES) | inhibition at 3 µM (HT-1080 [1]) [%] | inhibition at 30 µM (HT-1080 [2]) [%] | inhibition at 3 µM (HT-1080 [3]) [%] | inhibition at 10 µM (HT-1080 [4]) [%] | inhibition at 10 µM (HT-1080 [5]) [%] | inhibition at 30 µM (HT-1080 [6]) [%] | inhibition at 30 µM (HT-1080 [8]) [%] | inhibition at 3 µM (HT-1080 [9]) [%] | IC50 (U-937 [10]) [µM] | inhibition at 30 µM (HT-1080 [12]) [%] | inhibition at 3 µM (HT-1080 [13]) [%] | IC50 (U-937 [15]) [µM] | IC50 (U-937 [16]) [µM] | inhibition at 30 µM (HT-1080 [17]) [%] | inhibition at 30 µM (HT-1080 [18]) [%] | inhibition at 30 µM (HT-1080 [19]) [%] | inhibition at 3 µM (HT-1080 [20]) [%] | inhibition at 3 µM (HT-1080 [21]) [%] | inhibition at 10 µM (HT-1080 [22]) [%] | inhibition at 10 µM (HT-1080 [23]) [%] | also measured |
| --- | --- | --- | --- | --- | --- | --- | --- | --- | --- | --- | --- | --- | --- | --- | --- | --- | --- | --- | --- | --- | --- |
| O=c1c(-c2ccc(O)cc2)coc2cc(O)cc(O)c12 [GENISTEIN] | 1.5 | 12.5 | 3.8 | 5.1 | -1.2 | 25.3 | 17.6 | -0.9 | 48 | 22.5 | 2 | > 100 | 72 | 17.3 | 17.2 | 43.2 | -6.2 | 5.5 | 35.1 | 6.1 | Activity (HL-60 [7]): 4.1%; Activity (HL-60 [11]): 5.3 10^5/ml; Activity (HL-60 [14]): 8.3 10^5/ml; inhibition at 3 µM (HT-1080 [24]): 2.8%; inhibition at 10 µM (HT-1080 [25]): 6%; inhibition at 10 µM (HT-1080 [26]): 1.7%; inhibition at 10 µM (HT-1080 [27]): 9.3%; Activity (HL-60 [28]): 11.2% |
| C=C(C)[C@H]1Cc2c(ccc3c2O[C@@H]2COc4cc(OC)c(OC)cc4[C@]2(O)C3=O)O1 [ROTENOLONE] | 97.1 | 5.5 | 96.9 | 47.6 | 2.4 | 96 | 53.6 | 98.7 | 0.09 | 98.5 | 50.6 | 3.6 | 0.07 | 29.2 | 95 | 54.6 | 0.8 | 30.6 | 64.9 | 24.4 | inhibition at 1 µM (HT-1080 [29]): 3.3%; inhibition at 1 µM (HT-1080 [30]): -2%; inhibition at 1 µM (HT-1080 [31]): 95.8%; inhibition at 1 µM (HT-1080 [32]): 97.3%; Activity (HT-1080 [33]): Active; Activity (HT-1080 [34]): Active; inhibition at 1 µM (HT-1080 [35]): 52.2%; inhibition at 3 µM (HT-1080 [24]): 21.8%; inhibition at 10 µM (HT-1080 [25]): 94.9%; inhibition at 1 µM (HT-1080 [36]): 17.2%; inhibition at 10 µM (HT-1080 [26]): 98.3%; inhibition at 10 µM (HT-1080 [27]): 96.4%; inhibition at 1 µM (HT-1080 [37]): 98.3% |
| COc1cc2c(cc1OC)[C@]1(O)C(=O)c3ccc4c(c3O[C@@H]1CO2)C=CC(C)(C)O4 [TEPHROSIN] | 97.9 | 3.8 | 97.9 | 67.7 | 2 | 98 | 83.2 | 98.7 | 7.3 | 98.6 | 63 | 30 | 23 | 13.7 | 98.3 | 67.6 | 0.8 | 29.6 | 49.2 | 5.9 | Activity (HL-60 [7]): 5.9%; inhibition at 1 µM (HT-1080 [29]): -9.3%; inhibition at 1 µM (HT-1080 [30]): -1.9%; Activity (HL-60 [11]): 1 10^5/ml; inhibition at 1 µM (HT-1080 [31]): 96.4%; inhibition at 1 µM (HT-1080 [32]): 97.8%; Activity (HT-1080 [33]): Active; Activity (HL-60 [14]): 4.5 10^5/ml; Activity (HT-1080 [34]): Active; inhibition at 1 µM (HT-1080 [35]): 54%; inhibition at 3 µM (HT-1080 [24]): 7%; inhibition at 10 µM (HT-1080 [25]): 98.2%; inhibition at 1 µM (HT-1080 [36]): 5%; inhibition at 10 µM (HT-1080 [26]): 98.9%; inhibition at 10 µM (HT-1080 [27]): 98.1%; Activity (HL-60 [28]): 8.4%; inhibition at 1 µM (HT-1080 [37]): 98.7% |
| C=C(C)[C@H]1Cc2c(ccc3c2O[C@@H]2COc4cc(OC)c(OC)cc4[C@@H]2C3=O)O1 [ROTENONE] | 95.3 | 0.7 | 97.5 | 51 | 9.5 | 96.9 | 40.4 | 98.5 | 0.07 | 97.8 | 44.2 | 13 | 0.2 | 26.8 | 93.4 | 51.6 | 9.9 | 19.6 | 53.7 | 23 | inhibition at 1 µM (HT-1080 [29]): 0.6%; inhibition at 1 µM (HT-1080 [30]): 9.4%; inhibition at 1 µM (HT-1080 [31]): 95.9%; inhibition at 1 µM (HT-1080 [32]): 97.4%; Activity (HT-1080 [33]): Active; Activity (HT-1080 [34]): Active; inhibition at 1 µM (HT-1080 [35]): 35.2%; inhibition at 3 µM (HT-1080 [24]): 17.1%; inhibition at 10 µM (HT-1080 [25]): 91.4%; inhibition at 1 µM (HT-1080 [36]): 16.2%; inhibition at 10 µM (HT-1080 [26]): 98.4%; inhibition at 10 µM (HT-1080 [27]): 97.3%; inhibition at 1 µM (HT-1080 [37]): 98.6% |
